The source of these data is ChEMBL document CHEMBL4834496 (ACS Med Chem Lett, 2021).

Assay [1] has as its target T1, Botulinum neurotoxin type A (Clostridium botulinum, UniProt P0DPI0). Nature of the assay: Inhibition of Clostridium botulinum BoNT/A using SNAP-25 (66-mer) as substrate by LC-MS analysis.
The target in assay [2] is T1, Botulinum neurotoxin type A. The assay is described as follows: Inhibition of Clostridium botulinum BoNT/A light chain.

T1 sequence (P0DPI0 2-448 limits assumed): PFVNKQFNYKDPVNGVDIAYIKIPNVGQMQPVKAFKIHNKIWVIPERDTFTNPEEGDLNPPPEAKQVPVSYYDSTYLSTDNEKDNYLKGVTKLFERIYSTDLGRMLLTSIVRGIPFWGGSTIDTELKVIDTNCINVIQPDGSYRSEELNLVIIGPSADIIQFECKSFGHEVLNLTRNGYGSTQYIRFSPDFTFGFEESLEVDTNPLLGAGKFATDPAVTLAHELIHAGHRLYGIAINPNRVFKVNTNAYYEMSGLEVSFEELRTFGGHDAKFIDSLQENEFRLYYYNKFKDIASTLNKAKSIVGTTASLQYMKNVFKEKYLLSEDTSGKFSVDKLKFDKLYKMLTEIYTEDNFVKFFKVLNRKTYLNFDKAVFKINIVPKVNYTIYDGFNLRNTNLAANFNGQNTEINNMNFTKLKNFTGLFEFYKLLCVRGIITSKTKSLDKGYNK

As a reminder, the IC50 is the concentration that gives 50% inhibition. Higher therefore signals lower potency. In assay [1], `O=C(C[C@@H](CCO)c1ccc(Cl)cc1Cl)NO` registered an IC50 of 1 µM.

For orientation: Ki means the equilibrium dissociation constant of an inhibitor or competing ligand from its target. Read a low Ki as higher affinity. For `N=C(N)NCCC[C@H](N)C(=O)NO`, the inhibition constant Ki in assay [2] is 60 µM. Take `O=C(C[C@H](CCO)c1ccc(Cl)cc1)NO`: half-maximal inhibition in assay [1] (IC50) was put at 36 µM. On the same count and under the same terms, then `O=C(C[C@H](CCO)c1ccc(Cl)cc1Cl)NO`, with 21 µM; and `O=C(C[C@@H](CCO)c1ccc(Cl)cc1)NO`, with 8 µM.
